Results reported in publication PMC4854315, “Discovery of a novel allosteric inhibitor-binding site in ERK5: comparison with the canonical kinase hinge ATP-binding site” (Acta Crystallographica. Section D, Structural Biology, 2016).

Experiments:
Assay in all cases: Z'-LYTE kinase panel
Type in all cases: biochemical
[1] = molecular target: T1, SGK (SGK1) (Homo sapiens, UniProt O00141)
T1 construct: purchased ThermoFisher (SelectScreen, Z'-LYTE)
T1 sequence (O00141 1-431): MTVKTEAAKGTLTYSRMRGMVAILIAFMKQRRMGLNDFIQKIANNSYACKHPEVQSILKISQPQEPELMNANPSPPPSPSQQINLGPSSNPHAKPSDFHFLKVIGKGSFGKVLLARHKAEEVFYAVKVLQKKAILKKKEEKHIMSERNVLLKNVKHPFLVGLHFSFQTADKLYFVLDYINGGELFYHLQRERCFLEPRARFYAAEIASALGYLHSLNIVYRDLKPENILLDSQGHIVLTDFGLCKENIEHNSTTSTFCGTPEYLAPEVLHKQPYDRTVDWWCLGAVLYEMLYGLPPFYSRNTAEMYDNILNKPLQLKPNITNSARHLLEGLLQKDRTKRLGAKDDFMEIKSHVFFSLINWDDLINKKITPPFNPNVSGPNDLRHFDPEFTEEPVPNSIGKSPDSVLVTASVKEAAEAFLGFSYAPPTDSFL
Outline: (§1)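 A panel of 225 kinases is tested by Z′-LYTE under the standard protocol, with compounds at 10 µM and results given as percentage inhibition.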

[2] = molecular target: T2, PLK2 (Homo sapiens, UniProt Q9NYY3)
T2 construct: purchased ThermoFisher (SelectScreen, Z'-LYTE)
Outline: as §1

[3] = molecular target: T3, JAK2 (Homo sapiens, UniProt O60674)
T3 construct: purchased ThermoFisher (SelectScreen, Z'-LYTE)
Outline: as §1

[4] = molecular target: T4, HIPK4 (Homo sapiens, UniProt Q8NE63)
T4 construct: purchased ThermoFisher (SelectScreen, Z'-LYTE)
T4 sequence (Q8NE63 1-616): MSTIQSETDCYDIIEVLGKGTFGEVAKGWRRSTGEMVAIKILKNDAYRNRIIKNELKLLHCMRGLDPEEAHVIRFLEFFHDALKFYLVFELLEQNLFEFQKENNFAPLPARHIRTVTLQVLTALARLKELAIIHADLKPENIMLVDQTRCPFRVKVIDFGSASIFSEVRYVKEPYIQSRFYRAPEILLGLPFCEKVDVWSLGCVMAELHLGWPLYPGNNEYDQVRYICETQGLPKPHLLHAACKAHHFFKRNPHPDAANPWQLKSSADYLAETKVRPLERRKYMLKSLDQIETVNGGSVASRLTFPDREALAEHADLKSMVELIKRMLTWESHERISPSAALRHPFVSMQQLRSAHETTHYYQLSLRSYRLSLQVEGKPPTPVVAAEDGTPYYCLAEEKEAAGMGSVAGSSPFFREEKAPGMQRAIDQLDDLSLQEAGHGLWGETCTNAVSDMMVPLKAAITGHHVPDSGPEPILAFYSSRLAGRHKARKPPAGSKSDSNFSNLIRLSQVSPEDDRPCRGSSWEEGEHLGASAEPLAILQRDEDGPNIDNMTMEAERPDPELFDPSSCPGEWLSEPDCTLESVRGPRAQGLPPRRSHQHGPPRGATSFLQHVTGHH
Outline: as §1

[5] = molecular target: T5, ALK (Homo sapiens, UniProt Q9UM73)
T5 construct: purchased ThermoFisher (SelectScreen, Z'-LYTE)
Outline: as §1

[6] = molecular target: T6, HIPK2 (Homo sapiens, UniProt Q9H2X6)
T6 construct: purchased ThermoFisher (SelectScreen, Z'-LYTE)
Outline: as §1

[7] = molecular target: T7, STK3 (MST2) (Homo sapiens, UniProt Q13188)
T7 construct: purchased ThermoFisher (SelectScreen, Z'-LYTE)
T7 sequence (Q13188 1-491): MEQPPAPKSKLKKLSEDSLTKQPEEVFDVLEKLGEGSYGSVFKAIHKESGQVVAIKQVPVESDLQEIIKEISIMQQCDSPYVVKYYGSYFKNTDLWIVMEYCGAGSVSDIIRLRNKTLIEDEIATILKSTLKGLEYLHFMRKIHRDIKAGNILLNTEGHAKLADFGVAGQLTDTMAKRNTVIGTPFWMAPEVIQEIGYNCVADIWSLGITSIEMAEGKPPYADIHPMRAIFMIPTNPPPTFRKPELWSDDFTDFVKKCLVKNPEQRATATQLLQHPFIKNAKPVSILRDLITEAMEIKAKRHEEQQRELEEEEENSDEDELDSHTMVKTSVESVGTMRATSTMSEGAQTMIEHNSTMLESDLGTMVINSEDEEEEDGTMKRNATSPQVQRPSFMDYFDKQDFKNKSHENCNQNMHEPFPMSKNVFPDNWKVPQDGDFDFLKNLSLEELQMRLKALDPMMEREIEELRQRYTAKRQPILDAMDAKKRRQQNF
Outline: as §1

[8] = molecular target: T8, PHKG1 (Homo sapiens, UniProt Q16816)
T8 construct: purchased ThermoFisher (SelectScreen, Z'-LYTE)
Outline: as §1

[9] = molecular target: T9, IRAK4 (Homo sapiens, UniProt Q9NWZ3)
T9 construct: purchased ThermoFisher (SelectScreen, Z'-LYTE)
T9 sequence (Q9NWZ3 1-460): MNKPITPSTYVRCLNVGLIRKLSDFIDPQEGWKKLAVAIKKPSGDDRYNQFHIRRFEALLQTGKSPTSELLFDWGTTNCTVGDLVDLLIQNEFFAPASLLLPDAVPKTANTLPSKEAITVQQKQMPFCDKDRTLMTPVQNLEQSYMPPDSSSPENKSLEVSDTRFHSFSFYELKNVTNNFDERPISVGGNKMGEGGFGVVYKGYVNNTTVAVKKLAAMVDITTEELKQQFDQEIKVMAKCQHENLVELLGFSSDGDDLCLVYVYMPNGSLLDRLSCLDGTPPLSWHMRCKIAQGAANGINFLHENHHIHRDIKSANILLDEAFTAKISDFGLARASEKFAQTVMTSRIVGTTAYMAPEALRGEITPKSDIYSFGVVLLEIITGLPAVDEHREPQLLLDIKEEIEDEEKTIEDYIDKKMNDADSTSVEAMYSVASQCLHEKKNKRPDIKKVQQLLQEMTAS
Outline: as §1

T2 sequence (Q9NYY3 whole entry): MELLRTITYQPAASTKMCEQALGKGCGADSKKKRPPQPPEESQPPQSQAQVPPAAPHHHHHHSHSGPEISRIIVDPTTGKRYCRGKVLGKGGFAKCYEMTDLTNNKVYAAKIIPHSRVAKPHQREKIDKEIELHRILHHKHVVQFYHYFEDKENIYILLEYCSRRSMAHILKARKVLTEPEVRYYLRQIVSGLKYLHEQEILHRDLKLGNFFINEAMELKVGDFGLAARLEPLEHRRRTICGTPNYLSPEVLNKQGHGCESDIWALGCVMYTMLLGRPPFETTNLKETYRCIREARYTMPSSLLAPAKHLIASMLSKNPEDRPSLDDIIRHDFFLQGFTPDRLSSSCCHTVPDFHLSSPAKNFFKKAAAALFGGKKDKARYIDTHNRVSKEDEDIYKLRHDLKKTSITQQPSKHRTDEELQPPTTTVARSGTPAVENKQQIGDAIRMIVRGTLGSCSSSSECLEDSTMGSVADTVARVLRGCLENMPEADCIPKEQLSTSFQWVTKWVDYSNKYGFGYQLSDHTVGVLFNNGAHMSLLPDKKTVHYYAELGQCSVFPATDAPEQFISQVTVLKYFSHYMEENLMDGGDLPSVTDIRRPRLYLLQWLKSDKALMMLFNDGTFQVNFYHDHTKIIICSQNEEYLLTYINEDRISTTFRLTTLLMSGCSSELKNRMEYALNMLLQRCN
T3 sequence (O60674 whole entry): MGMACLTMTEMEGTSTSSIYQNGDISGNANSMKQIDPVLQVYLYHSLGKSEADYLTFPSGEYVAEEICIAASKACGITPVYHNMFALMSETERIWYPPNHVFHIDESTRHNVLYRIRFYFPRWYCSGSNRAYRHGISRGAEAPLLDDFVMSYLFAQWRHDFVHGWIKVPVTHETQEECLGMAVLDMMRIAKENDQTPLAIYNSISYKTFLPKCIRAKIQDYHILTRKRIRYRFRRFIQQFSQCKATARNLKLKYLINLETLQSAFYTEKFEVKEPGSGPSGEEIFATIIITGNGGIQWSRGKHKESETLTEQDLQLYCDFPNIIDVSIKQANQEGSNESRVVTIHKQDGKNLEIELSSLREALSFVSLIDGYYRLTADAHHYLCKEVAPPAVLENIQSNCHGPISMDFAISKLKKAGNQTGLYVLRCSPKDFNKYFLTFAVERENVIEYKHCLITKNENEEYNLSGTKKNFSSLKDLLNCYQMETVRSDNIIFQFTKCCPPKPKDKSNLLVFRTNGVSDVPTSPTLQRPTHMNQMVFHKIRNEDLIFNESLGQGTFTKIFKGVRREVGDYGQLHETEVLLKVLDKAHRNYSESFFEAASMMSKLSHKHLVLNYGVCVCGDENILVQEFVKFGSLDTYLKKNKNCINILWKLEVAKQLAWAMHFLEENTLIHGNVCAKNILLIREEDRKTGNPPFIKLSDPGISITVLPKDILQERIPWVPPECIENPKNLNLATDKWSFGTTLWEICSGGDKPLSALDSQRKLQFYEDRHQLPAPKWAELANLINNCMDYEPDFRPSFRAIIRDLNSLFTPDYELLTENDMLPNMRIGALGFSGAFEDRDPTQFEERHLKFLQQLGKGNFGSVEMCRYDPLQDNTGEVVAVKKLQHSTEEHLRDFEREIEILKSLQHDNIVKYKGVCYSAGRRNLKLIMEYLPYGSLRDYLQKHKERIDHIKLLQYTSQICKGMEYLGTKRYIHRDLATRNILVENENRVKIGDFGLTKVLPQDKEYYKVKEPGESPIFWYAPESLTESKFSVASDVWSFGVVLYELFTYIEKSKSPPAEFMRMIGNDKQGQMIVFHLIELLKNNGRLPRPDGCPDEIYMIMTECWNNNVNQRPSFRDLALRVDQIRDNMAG
T6 sequence (Q9H2X6 whole entry): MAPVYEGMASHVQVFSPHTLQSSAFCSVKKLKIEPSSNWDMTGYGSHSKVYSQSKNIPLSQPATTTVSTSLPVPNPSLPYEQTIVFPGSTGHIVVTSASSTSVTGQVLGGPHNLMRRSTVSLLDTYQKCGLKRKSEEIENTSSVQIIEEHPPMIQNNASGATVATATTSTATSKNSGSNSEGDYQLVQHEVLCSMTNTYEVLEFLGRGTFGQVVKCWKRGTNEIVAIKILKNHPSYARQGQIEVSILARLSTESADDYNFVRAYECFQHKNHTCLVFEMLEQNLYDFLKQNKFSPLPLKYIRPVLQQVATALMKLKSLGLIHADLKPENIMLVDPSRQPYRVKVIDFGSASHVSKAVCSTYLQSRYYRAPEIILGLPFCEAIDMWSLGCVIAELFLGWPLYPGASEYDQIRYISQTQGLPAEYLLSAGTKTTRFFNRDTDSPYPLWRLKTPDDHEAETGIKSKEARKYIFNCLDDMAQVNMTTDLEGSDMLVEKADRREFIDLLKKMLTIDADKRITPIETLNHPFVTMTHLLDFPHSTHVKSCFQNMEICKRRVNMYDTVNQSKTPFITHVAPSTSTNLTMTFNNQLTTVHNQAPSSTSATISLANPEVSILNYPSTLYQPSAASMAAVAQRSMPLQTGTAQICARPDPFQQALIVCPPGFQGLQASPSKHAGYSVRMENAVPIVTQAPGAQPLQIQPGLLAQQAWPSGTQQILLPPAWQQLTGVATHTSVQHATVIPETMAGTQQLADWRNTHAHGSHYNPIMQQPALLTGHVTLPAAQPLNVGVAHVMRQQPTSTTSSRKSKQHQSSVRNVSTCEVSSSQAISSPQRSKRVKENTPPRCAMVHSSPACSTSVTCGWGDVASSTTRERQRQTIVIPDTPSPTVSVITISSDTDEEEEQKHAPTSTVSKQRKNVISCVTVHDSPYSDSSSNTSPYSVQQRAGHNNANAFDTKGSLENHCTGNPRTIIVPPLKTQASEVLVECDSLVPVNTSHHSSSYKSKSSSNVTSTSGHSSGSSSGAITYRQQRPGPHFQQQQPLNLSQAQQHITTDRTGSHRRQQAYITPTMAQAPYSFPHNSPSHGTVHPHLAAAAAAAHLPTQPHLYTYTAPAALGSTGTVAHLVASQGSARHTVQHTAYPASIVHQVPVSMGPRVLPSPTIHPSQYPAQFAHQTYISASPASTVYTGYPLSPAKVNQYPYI
T5 sequence (Q9UM73 19-1620): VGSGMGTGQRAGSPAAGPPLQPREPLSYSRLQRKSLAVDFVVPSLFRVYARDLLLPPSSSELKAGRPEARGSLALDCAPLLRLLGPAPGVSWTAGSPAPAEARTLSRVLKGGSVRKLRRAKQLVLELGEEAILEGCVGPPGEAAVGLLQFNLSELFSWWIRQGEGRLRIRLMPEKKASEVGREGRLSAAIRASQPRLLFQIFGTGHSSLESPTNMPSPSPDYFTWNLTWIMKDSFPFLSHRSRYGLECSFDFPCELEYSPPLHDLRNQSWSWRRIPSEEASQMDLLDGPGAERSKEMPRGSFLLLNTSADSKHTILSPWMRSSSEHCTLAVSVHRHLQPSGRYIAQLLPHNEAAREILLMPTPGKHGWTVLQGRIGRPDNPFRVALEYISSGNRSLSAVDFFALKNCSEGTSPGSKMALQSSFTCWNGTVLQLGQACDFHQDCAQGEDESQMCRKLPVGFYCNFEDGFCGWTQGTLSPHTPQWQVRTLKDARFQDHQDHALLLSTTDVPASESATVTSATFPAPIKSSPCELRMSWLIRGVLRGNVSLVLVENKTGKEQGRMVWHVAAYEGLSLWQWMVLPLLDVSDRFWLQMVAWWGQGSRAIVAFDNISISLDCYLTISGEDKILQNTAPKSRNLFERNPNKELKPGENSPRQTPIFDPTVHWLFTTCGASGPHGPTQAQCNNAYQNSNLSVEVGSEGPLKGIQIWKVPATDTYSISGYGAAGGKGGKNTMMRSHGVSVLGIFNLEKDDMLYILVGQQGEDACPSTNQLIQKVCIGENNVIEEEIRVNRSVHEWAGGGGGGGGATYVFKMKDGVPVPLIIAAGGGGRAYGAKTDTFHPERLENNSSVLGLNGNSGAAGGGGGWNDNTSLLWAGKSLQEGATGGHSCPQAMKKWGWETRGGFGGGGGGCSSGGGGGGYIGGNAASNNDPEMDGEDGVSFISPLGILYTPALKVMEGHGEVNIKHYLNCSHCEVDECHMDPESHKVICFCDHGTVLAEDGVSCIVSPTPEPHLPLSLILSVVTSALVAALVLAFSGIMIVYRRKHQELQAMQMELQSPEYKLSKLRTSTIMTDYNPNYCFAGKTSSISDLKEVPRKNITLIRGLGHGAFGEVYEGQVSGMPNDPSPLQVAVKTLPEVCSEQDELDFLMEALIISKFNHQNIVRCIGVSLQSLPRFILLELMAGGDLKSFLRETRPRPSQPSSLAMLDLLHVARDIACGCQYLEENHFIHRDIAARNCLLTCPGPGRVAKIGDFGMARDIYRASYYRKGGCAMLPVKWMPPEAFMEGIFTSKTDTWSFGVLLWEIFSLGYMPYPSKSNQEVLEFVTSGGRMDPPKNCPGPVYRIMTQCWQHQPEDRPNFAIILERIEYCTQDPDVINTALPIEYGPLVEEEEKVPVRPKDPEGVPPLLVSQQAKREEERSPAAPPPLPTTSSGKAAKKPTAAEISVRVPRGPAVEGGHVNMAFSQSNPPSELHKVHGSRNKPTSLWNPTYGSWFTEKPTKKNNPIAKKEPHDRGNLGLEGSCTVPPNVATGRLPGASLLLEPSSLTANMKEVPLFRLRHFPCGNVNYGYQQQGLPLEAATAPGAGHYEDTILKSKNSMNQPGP
T8 sequence (Q16816 whole entry): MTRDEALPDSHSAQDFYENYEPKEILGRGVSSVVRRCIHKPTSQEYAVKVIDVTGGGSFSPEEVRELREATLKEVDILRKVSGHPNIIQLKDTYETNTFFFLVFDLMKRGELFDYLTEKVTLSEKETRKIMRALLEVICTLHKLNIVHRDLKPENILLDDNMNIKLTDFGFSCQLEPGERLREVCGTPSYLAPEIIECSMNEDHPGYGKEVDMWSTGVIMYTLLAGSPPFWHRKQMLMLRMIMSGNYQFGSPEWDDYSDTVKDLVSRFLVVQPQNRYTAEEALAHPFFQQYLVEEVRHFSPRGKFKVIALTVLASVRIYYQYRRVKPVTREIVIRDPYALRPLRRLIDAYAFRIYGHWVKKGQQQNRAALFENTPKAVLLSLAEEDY

Compound	inhibition at 10 µM [1] [%]	inhibition at 10 µM [2] [%]	inhibition at 10 µM [3] [%]	inhibition at 10 µM [4] [%]	inhibition at 10 µM [5] [%]	inhibition at 10 µM [6] [%]	inhibition at 10 µM [7] [%]	inhibition at 10 µM [8] [%]	inhibition at 10 µM [9] [%]	SGK (SGK1) % Inhibition ([1]; 10 µM compound, ATP Km app) [%]	PLK2 % Inhibition ([2]; 10 µM compound, ATP Km app) [%]	JAK2 % Inhibition ([3]; 10 µM compound, ATP Km app) [%]	HIPK4 % Inhibition ([4]; 10 µM compound, ATP Km app) [%]	ALK % Inhibition ([5]; 10 µM compound, ATP Km app) [%]	HIPK2 % Inhibition ([6]; 10 µM compound, ATP Km app) [%]	STK3 (MST2) % Inhibition ([7]; 10 µM compound, ATP Km app) [%]	PHKG1 % Inhibition ([8]; 10 µM compound, ATP Km app) [%]	IRAK4 % Inhibition ([9]; 10 µM compound, ATP Km app) [%]
Cc1ncc(-c2nc(Nc3ccc(C(=O)NCCN4CCCCC4)cc3)ncc2F)n1C(C)C [Compound 3]	91	48	92	92	78	93	79	100	71	–	–	–	–	–	–	–	–	–
Cc1cc(Nc2nc(N)nn2C(=O)NC(C)C)ccc1Cl [Compound 5]	9	63	66	19	20	45	53	-5.38	-2.32	–	–	–	–	–	–	–	–	–
XMD8-92 [Compound 2, reference compound]	–	–	–	–	–	–	–	–	–	66	12	95	10	16	2	-12	12	-9
